Measurements: patent US20050124618A1, “Methods of modulating angiogenesis and cancer cell proliferation” (priority 2003, published 2005)

Columns and labels:
20-HETE = conditions: cited from earlier work
SAPK/JNK = experiment: Western blot of phospho-SAPK/JNK in U251 cells; format: cell-based, human; conditions: 10 μM HET0016, 24 and 48 hr
Protocol: They were then pelleted by centrifugation at 1,000 g for 5 min at 4° C. Cells were lysed by adding RIPA buffer [20 mM HEPES (pH 7.4), 100 mM NaCl, 1% Nonidet P-40, 0.1% SDS, 1% deoxycholic acid, 10% glycerol, 1 mM EDTA, 1 mM NaVO3, 50 mM NaF, and Protease Inhibitors Set 1 (Calbiochem, La Jolla, Calif.)]. Plates were then scraped and cells collected in a 1.5-ml centrifuge tube, followed by incubation on ice for 30 min. Homogenates of the cell suspension were centrifuged for 10 min at 14,000 g and 4° C.; the pellets were discarded and protein concentrations in the supernatant determined by bicinchoninic acid (BCA) protein assay.
Typically, 20 μg of protein was separated on a 14% Tris-glycine gel (Invitrogen) and electroblotted on a PVDF membrane (Biotrace, Bothell, Wash.). Membranes were blocked for 1 h at room temperature with blocking buffer [0.2% I-Block reagent (Tropix, Bedford, Mass.), 0.1% Tween-20 in […]] before incubation with primary antibodies in blocking buffer (overnight at 4° C.). […] Both phospho-tyrosine (Y102) and phospho-serine/threonine-Pro MPM2 were detected using a 1:2000 dilution of the corresponding antibodies, whereas phospho-p44/p42MAPK and phospho-SAPK/JNK were detected using 1:1000 antibody dilutions. […]

Compound: CCCCc1ccc(N=CNO)c(C)c1 [HET0016, N-hydroxy-N′-(4-butyl-2 methylphenyl) formamidine]
- ability to reduce 20-HETE levels in vivo (20-HETE): reduce 20-HETE levels in vivo
- phosphorylation of SAPK/JNK (SAPK/JNK): specifically inhibited phosphorylation
